Laboratory results published in patent US8200312B2, “Apparatus for monitoring a system pressure in space with time and method for assessing drug delivery and resistance to therapy and product” (Yeda Research and Development Co. Ltd., priority 2006, dated 2012).
“Also recorded” adds a separate entry of the source.

What was measured:
[1] = tested on: ectopic human non-small-cell lung cancer and orthotopic MCF7 human breast tumors; conditions: slow infusion for ~2 hours; cited from earlier work
[2] = as previously reported (44); cited from earlier work
[3] = tested on: human osteosarcoma xenografts; conditions: collagenase (0.1%), cited from earlier work
tumors = conditions: intra-tumoral injection; cited from earlier work
H460 tumors = assay: Steady-state tissue GdDTPA concentration maps (T1 relaxation MRI) before and after collagenase; type: in vivo, female CD1-NU immunodeficient mice
Procedure: (§1) Collagenase catalyzes the degradation of collagen fibers. Changing the collagen microfibrillar network in tumors modulates the extracellular matrix and causes a decrease in IFP (10, 26). H460 tumors were monitored during infusion, in the dynamic period and at steady state 24 h before and ˜5 h after collagenase administration (0.4 mg/kg body w). […] Similarly, maps of transcapillary transfer due to pressure gradients, k^ΔP, and the profiles of this parameter across the tumor indicated a change, particularly in the tumor's central region, from a negative k^ΔP before collagenase to a null or positive k^ΔP after collagenase (FIG. 6).
(§2) Human NCI-H460 non small cell lung cancer (NSCLC) cells were cultivated and implanted into the flanks of female CD1-NU immunodeficient mice, as previously described (4). During the MRI experiments, mice were anaesthetized by inhalation of 1% isofluorane (Medeva Pharmaceuticals, Inc., Rochester, N.Y., USA) in an O2/N2O (3:7) mixture applied through a nose cone (4). Collagenase (Sigma-Aldrich, St Louis, Mo., USA) treatment was applied by i.v. injection of 0.4 mg/kg body w of this enzyme (1 mg=161 collagen digestion units).
(§3) Tissue contrast agent concentration at steady state infusion was determined from measurements of T1 relaxation rates before, and at 90 min after the start of the intravenous infusion of the contrast agent as previously described (4). For the dynamic measurements 3-dimensional T1. weighted gradient echo images were recorded using TErTR=2.1/18.3 ms and flip angle=45°, 47 s temporal resolution. After recording 5 pre-contrast images, slow infusion of GdDTPA (gadopentate-dimeglumine, Schering, Berlin, Germany) was initiated at a rate of 0.011 mmol/min/kg body wt. for a total time of 120 min.
Tissue GdDTPA concentration (CGd) at steady state was calculated at pixel resolution from the T1 measurements, as previously described (4).

[4] = tested on: H460 human non-small-cell lung cancer tumors; assay: Dynamic contrast-enhanced MRI during slow GdDTPA infusion: vascular parameters before and after collagenase; type: in vivo, female CD1-NU immunodeficient mice
Procedure: as §1, §2
MRI scanning was performed on a 4.7-T Biospec spectrometer (Bruker Biospin, Rheinstetten, Germany) employing the same spatial resolution of 0.2×0.2×1 mm^3 in all protocols. Delineation of the boundary of the tumors and determination of their volume was achieved by analyzing images recorded with a 2-dimensional fast spin echo sequence using […] as previously described (40).
as §3
Analysis of the dynamic data collected during the slow infusion was performed at pixel resolution, on the basis of a model proposed by Jain et al (1, 35, 41-43). This model takes into account the transfer of solutes through the capillary walls and within the interstitial spaces by both diffusion in the direction of the concentration gradients and convection in the direction of the pressure gradients. Relying on few assumptions, which are described herein two differential equations were solved. The first equation applies to regions with low IFP were positive pressure gradients favors net transfer of contrast agent from the capillaries into the tissue (see equation 1) and the second one applies to intra tumoral regions with high IFP where a pressure gradients in the interstitium favors outward convection of the contrast agent and reduces the net delivery to these regions (see equation 2).
Where Ct is the contrast agent concentration in the entire tissue, Dinf is the contrast agent-infusion rate, k^trans the transcapillary transfer constant, k^ΔP the pressure gradients derived transfer rate which also depends on the shape, morphology, and the hydraulic conductivity of the tissue (1). νe represents the extracellular extravascular (EES) volume fraction, and νp the intravascular volume fraction. The parameters ai, and mi (i=1,2) represent the average plasma pharmacokinetic amplitude and time constant parameters, respectivelyt calculated to be a1=2.94 kg/l, a2=4.85 kg/l, m1=0.73 min^−1, and m2=0.075 min^−1 as previously reported (44).
A nonlinear “best fit” algorithm (40) was applied to fit the time courses to Equations 1 and 2, calculating the proportion of variability, R^2, per pixel for each fitting. […]

fibrosarcoma mouse model = conditions: cited from earlier work
[5] = H460 tumors, within hours after administration
[6] = steady state infusion, ~5 h after collagenase 0.4 mg/kg
[7] = inside H460 tumors (excluding the rim), 5 h after collagenase administration

Compound: O=C([O-])CN(CCN(CC(=O)[O-])CC(=O)O)CCN(CC(=O)[O-])CC(=O)O.[Gd+3] [GdDTPA, gadolinium-diethylenetriaminepentaacetic acid]
- steady-state tissue GdDTPA concentration further inside the tumor [1]: low or null values
- steady-state tissue GdDTPA concentration in the tumor periphery [1]: ~0.5 mmol/L
- steady-state tissue GdDTPA concentration outside the tumor boundaries [1]: ~1 mmol/L
- a1, average plasma pharmacokinetic amplitude [2]: 2.94 kg/L
- a2, average plasma pharmacokinetic amplitude [2]: 4.85 kg/L
- m1, plasma time constant parameter [2]: 0.73 min⁻¹
- m2, plasma time constant parameter [2]: 0.075 min⁻¹

Compound: collagenase
- effect on IFP ([3]; within hours): reduced IFP
- increase in the tumor uptake and distribution of a monoclonal antibody [3]: 2 fold
- effect on IFP (tumors): reduce IFP
- effect on uptake of antibodies (tumors): increase the uptake
- steady state tissue GdDTPA concentration in the internal parts after collagenase treatment (H460 tumors; H460 tumors): significantly increased
- effect on IFP (H460 tumors; [5]): reduces IFP
- effect on uptake of a contrast agent (H460 tumors; [5]): increases the uptake
- outward convection after collagenase treatment (H460 tumors; [6]): vanished
- transfer of the contrast agent in the interior regions of the tumor after collagenase (H460 tumors; [6]): markedly increased
- all other vascular parameters derived from the analysis, change after collagenase ([4]; H460 tumors, ~5 h after collagenase 0.4 mg/kg): did not change significantly
- change of pressure dependent transfer constant in the tumors' central/internal regions after collagenase ([4]; H460 tumors, from negative to positive values): significant increase; also recorded: significant change
- k^ΔP in the internal parts of the tumors following collagenase treatment ([4]; increased from (−2.6±3.7)*10^−3, paired t-test, p=0.016): 8.6±8.9 *10^−3
- K^trans*10^−3 [4, 7]: 3.7 ± 3.4 *10^−3
- […]e (extracellular extravascular volume fraction) [4, 7]: 0.24 ± 0.06
- […]p (intravascular volume fraction) [4, 7]: 0.053 ± 0.027
- K^□p*10^−3 (pressure dependent transfer constant) ([4]; inside H460 tumors (excluding the rim), 5 h after collagenase administration, 0.4 mg/kg i.v., mean ± SD): 8.6 ± 8.9 *10^−3

Compound: hyaluronidase
- effect on IFP (tumors): reduce IFP
- effect on uptake of antibodies (tumors): increase the uptake

Compound: O=C1CCC(N2C(=O)c3ccccc3C2=O)C(=O)N1 (stereo not drawn) [thalidomide]
- plasma volume fraction and fractional efflux rate from the interstitial space to the plasma (fibrosarcoma mouse model; accompanying the decline in IFP): increased
- effect on IFP (fibrosarcoma mouse model; fibrosarcoma mouse model): decline
